Values joined by “and” are separate entries in the source; they are usually repeats but may differ in a detail not shown here. Equal entries are not always repeated.
What follows are compounds tested against Probable nicotinate-nucleotide adenylyltransferase (Staphylococcus aureus (strain N315), UniProt P65502).
Probable nicotinate-nucleotide adenylyltransferase, sequence (P65502 whole entry): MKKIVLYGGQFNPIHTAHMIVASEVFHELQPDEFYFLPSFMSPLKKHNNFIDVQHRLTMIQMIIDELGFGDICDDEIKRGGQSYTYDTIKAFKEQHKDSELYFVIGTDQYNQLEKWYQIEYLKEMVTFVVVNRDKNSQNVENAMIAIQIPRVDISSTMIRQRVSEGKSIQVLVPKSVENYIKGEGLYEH

For O=C1C(=O)N(c2nc3ccc(Cl)cc3s2)C(c2ccco2)C1C(=O)c1ccco1 (centres undefined), which IC50 is on record?
The IC50 was 56.8 µM.

How did the IC50 turn out when CCOc1ccc(CN=Nc2ccc(S(=O)(=O)Nc3ccccc3C(=O)O)cc2[N+](=O)[O-])cc1 was run?
The IC50 was 15.6 µM.

O=C(O)Cc1sc(N=NCc2ccccc2)nc1-c1ccccc1 was tested. Which IC50 did it give?
The IC50 was 27.7 µM.

With C1=NC2CCCC2C(N2CCCC2)=C1 (centres undefined) as the compound, how does the IC50 read?
The IC50 was 50 µM.

Which IC50 does the source give for Cc1ccccc1COc1ccc(C(=O)C2C(=O)C(=O)N(CCCn3ccnc3)C2c2ccco2)cc1 (centres undefined) here?
The IC50 was 80 µM.

For Cc1ccc(Nc2nnc(SCC(=O)C(C#N)c3nc4ccccc4[nH]3)s2)c(C)c1 (centres undefined) [2-(1,3-dihydrobenzimidazol-2-ylidene)-4-[[5-(2,4-dimethylanilino)-1,3,4-thiadiazol-2-yl]thio]-3-oxobutanenitrile], which IC50 is on record?
Its IC50 is 26.7 µM and 21.4 µM.

With Cc1ccc(-n2[nH]c(C)c(C(c3cccc(O)c3)c3c(C)[nH]n(-c4ccc(C)c(C)c4)c3=O)c2=O)cc1C [2-(3,4-dimethylphenyl)-4-[[1-(3,4-dimethylphenyl)-5-hydroxy-3-methyl-1H-pyrazol-4-yl](3-hydroxyphenyl)methyl]-5-methyl-2,4-dihydro-3H-pyrazol-3-one] as the compound, how does the IC50 read?
The IC50 was 15.1 µM.

With N#CC1C(=S)N=C(N)C(c2nc(-c3ccccc3)cs2)C12CCCCC2 (centres undefined) [2-amino-4-mercapto-1-(4-phenyl-2-thiazolyl)-3-azaspiro[5.5]undeca-2,4-diene-5-carbonitrile] as the compound, how does the IC50 read?
The IC50 was 23.2 µM.

Which IC50 does the source give for Cc1cc(N2C(=O)C(=O)C(C(=O)c3ccc(C)o3)C2c2ccc(OCc3ccccc3)cc2)no1 (centres undefined) [3-(5-methylfuran-2-yl)carbonyl-1-(5-methyl-1,2-oxazol-3-yl)-4-oxidanyl-2-(4-phenylmethoxyphenyl)-2H-pyrrol-5-one] here?
Its IC50 is 28.9 µM.

How did the IC50 turn out when N#CC1C(=S)N=C(N)C(c2nc(-c3ccccc3)cs2)C12CCCC2 (centres undefined) [7-amino-9-mercapto-6-(4-phenyl-2-thiazolyl)-8-azaspiro[4.5]deca-7,9-diene-10-carbonitrile] was run?
The IC50 was 19.1 µM.

With Cc1cccc(C)c1Nc1nnc(SCC(=O)C(C#N)c2nc3ccccc3[nH]2)s1 (centres undefined) [MLS000392242] as the compound, how does the IC50 read?
The IC50 was 25.2 µM.

For CCc1nnc(NS(=O)(=O)c2ccc(N=CCC(=O)c3ccc4ccccc4c3)cc2)s1 [N-(5-Ethyl-[1,3,4]thiadiazol-2-yl)-4-(3-naphthalen-2-yl-3-oxo-propenylamino)-benzenesulfonamide], which IC50 is on record?
The IC50 was 29.7 µM.

CC(=NNC(=O)c1cccc(N=NC(C)c2ccco2)c1)c1ccco1 (centres undefined) [N-[1-(2-furanyl)ethylideneamino]-3-[2-[1-(2-furanyl)ethylidene]hydrazinyl]benzamide] was tested. Which IC50 did it give?
Its IC50 is 14.8 µM.

With Cc1ccc(-n2c(O)cc(N(CCc3ccccc3)C(=S)Nc3ccc(N(C)C)cc3)c2O)cc1 [SMR000159829] as the compound, how does the IC50 read?
The IC50 was 77.7 µM.

Which IC50 does the source give for Cc1[nH]n(-c2ccc(Cl)cc2)c(=O)c1C(c1ccccc1O)c1c(C)[nH]n(-c2ccc(Cl)cc2)c1=O [SMR000171531] here?
Its IC50 is 21.1 µM.

How did the IC50 turn out when COc1cccc(OCc2cc(CN=Nc3ccc(C(=O)O)cc3)ccc2OC)c1 [SMR000415960] was run?
The IC50 was 25.5 µM.

Which IC50 does the source give for Nc1ccccc1C(=O)NNC(=O)C(=O)CC(=O)c1ccccc1 [SMR000427706] here?
The IC50 was 12 µM.

C#CCN(C[C@@H]1c2c(c(O)n(-c3ccccc3)c2O)C[C@@H](OC(=O)Nc2cccs2)[C@H]1OC(=O)Nc1cccs1)S(=O)(=O)c1ccc(C)cc1 [[(3aR,5R,6S,7S,7aS)-7-[[(4-methylphenyl)sulfonyl-prop-2-ynyl-amino]methyl]-1,3-bis(oxidanylidene)-2-phenyl-6-(thiophen-2-ylcarbamoyloxy)-3a,4,5,6,7,7a-hexahydroisoindol-5-yl] N-thiophen-2-ylcarbamate] was tested. Which IC50 did it give?
Its IC50 is 34.5 µM.

How did the IC50 turn out when CCOC(=O)c1ccccc1-n1c(O)c2c(c1O)C(C=Cc1ccccc1)c1sc(=O)[nH]c1S2 (centres undefined) [ethyl 2-[2,5,7-trioxo-8-[(E)-2-phenylethenyl]-3,4a,7a,8-tetrahydropyrrolo[2,3]thiopyrano[4,5-b][1,3]thiazol-6-yl]benzoate] was run?
Its IC50 is 45.9 µM.
